These results are taken from patent publication US20130079305A1, “3-SUBSTITUTED VINYLBORONATES AND USES THEREOF” (Yissum Research Development Company of the Hebrew …, priority 2010, published 2013).

Assay [1] has as its system HT-29 (colon cancer) cells. The assay is described as follows: MTT assay, HT-29 (colon cancer) cells. Conditions: Homo sapiens, HT-29 cells, 72 h incubation. In kind it is cell-based. As for the experimental part:
(§1) ARH-77 (myeloma) and HT-29 (colon cancer) cells were grown and counted, and were thereafter plated in 96-wells plates to get 0.1×10^6 cells/well. The plates were left in the incubator overnight for cells attachment and the tested compounds were then added to the cells. The tested concentrations of the compounds were 1, 2, 5, 10, 20, 50 and 100 μM. The compounds were incubated with the cells for 24 hours, 48 hours or for 72 hours, and were thereafter subjected to the MTT assay.
For orientation: Tetrazolium dyes change colour on reduction, which living cells bring about.

Another assay concerns ARH-77 (myeloma) cells. In words: MTT assay, ARH-77 (myeloma) cells. In kind it is cell-based. The note with it: ARH-77 cells; for IC50: Homo sapiens, 72 h incubation. As for the experimental part:
as §1

As to `CCC/C(=C\B1OC(C)(C)C(C)(C)O1)C(O)(c1ccccc1)C1CC1` (centres unmarked) [Compound E2], the figures for the IC50 (in assay [1]; in the assay on ARH-77 (myeloma) cells) were 85 µM and 54 µM, respectively.

With `CCC/C(=C\B1OC(C)(C)C(C)(C)O1)C1(O)CCCc2ccccc21` (centres unmarked) [Compound E3], the IC50 in assay [1] is 85 µM; in the assay on ARH-77 (myeloma) cells, 65 µM.

In turn, `CCC/C(=C\B1OC(C)(C)C(C)(C)O1)C(O)c1ccccc1` (centres unmarked) [Compound E4] had an IC50 in assay [1] greater than 100 µM. The “IC50, ARH-77, 72 h incubation” value in the assay on ARH-77 (myeloma) cells is recorded as “not active”.

For `CCCCCCC(C)(O)/C(=C/B1OC(C)(C)C(C)(C)O1)CCC` (centres unmarked) [Compound E5], the IC50 in assay [1] is 55 µM; with ARH-77 (myeloma) cells it was 30 µM.

As to `CCCCC(C)(O)/C(=C/B1OC(C)(C)C(C)(C)O1)CCC` (centres unmarked) [Compound E6], the IC50 in assay [1] was determined as 80 µM; in the assay with ARH-77 (myeloma) cells, 54 µM.

As for `CCCCCCCC/C(=C\B1OC(C)(C)C(C)(C)O1)C(O)(c1ccccc1)C1CC1` (centres unmarked) [Compound E7], the IC50 in assay [1] was 15 µM; in the assay with ARH-77 (myeloma) cells, 6 µM.

Take `CCCCCCCC/C(=C\B1OC(C)(C)C(C)(C)O1)C(C)(O)CCCCCC` (centres unmarked) [Compound E8]: the IC50 in assay [1] is greater than 100 µM; with ARH-77 (myeloma) cells, 78 µM.

Broadly, the IC50 is the concentration that gives 50% inhibition.
